Assay results taken from patent publication US6693216B2, “Calcium double salts” (Nutrinova Nutrition Specialties & Food Ingredients GmbH, priority 2000, dated 2004).
Read-outs that look alike come from different tables or passages of the source.

Columns and labels:
[1] = sealed
From the text: Salts prepared as in example 1 were dried, stored under the specified conditions without the addition of other substances and checked at regular intervals visually for discoloration: […]

Molds I = conditions: Part I, 1 g/l in apple juice pH 4.5, 25° C.
Yeasts = conditions: Part I, 1 g/l in apple juice pH 4.5, 25° C.
Acetic acid bacteria = conditions: Part I, 1 g/l in apple juice pH 4.5, 25° C.
Gram-positive bacteria = conditions: Part I, 1 g/l in apple juice pH 4.5, 25° C.
Gram-negative bacteria = conditions: Part I, 1 g/l in apple juice pH 4.5, 25° C.
Lactic acid bacteria = conditions: Part I, 1 g/l in apple juice pH 4.5, 25° C.
Thermophilic bacilli = conditions: Part I, 1 g/l in apple juice pH 4.5, 25° C.
Bacilli = conditions: Part I, 1 g/l in apple juice pH 4.5, 25° C.
Clostridia = conditions: Part I, 1 g/l in apple juice pH 4.5, 25° C.

For CCC(=O)[O-].O=C([O-])c1ccccc1.[Ca+2], the “Time after yellow-brown discoloration of a 1% strength aqueous solution” value (shortened to “Time … of a 1% strength aqueous solution”) ([1]; dark at 7° C.) was 12 months, the “Time after yellow-brown discoloration of the powder” value (“Time … of the powder” below) ([1]; dark at 7° C.) was 12 months and the “Time … of a 1% strength aqueous solution” value ([1]; dark at 25° C.) was 8 months. For the same compound, the “Time … of the powder” value ([1]; dark at 25° C.) was 7 months, the “Time … of a 1% strength aqueous solution” value ([1]; under sunlight at 7° C.) was 12 months and the “Time … of the powder” value ([1]; under sunlight at 7° C.) was 12 months. The “Time … of a 1% strength aqueous solution” value ([1]; under sunlight at 25° C.) was 7-8 months and the “Time … of the powder” value ([1]; under sunlight at 25° C.) was 8 months.
With C/C=C/C=C/C(=O)[O-].[K+] [Potassium Sorbate] the “Number of surviving microorganisms per g of contaminated sample, Molds I” value (from here on “Number … per g of contaminated sample, Molds I”) (Molds I; 1 day after inoculation (1.7 × 10^4)) was 5.0 × 10^4 CFU/g, the “Number … per g of contaminated sample, Molds I” value (Molds I; 3 days after inoculation (1.7 × 10^4)) was under 100 CFU/g and the “Number … per g of contaminated sample, Molds I” value (Molds I; 7 days after inoculation (1.7 × 10^4)) was under 10 CFU/g. The “Number … per g of contaminated sample, Molds I” value (Molds I; 14 days after inoculation (1.7 × 10^4)) was under 10 CFU/g, the “Number of surviving microorganisms per g of contaminated sample, Yeasts” value (“Number … per g of contaminated sample, Yeasts” below) (Yeasts; 1 day after inoculation (2.5 × 10^4)) was 2.7 × 10^5 CFU/g and the “Number … per g of contaminated sample, Yeasts” value (Yeasts; 3 days after inoculation (2.5 × 10^4)) was 1.1 × 10^4 CFU/g. For the same compound, the “Number … per g of contaminated sample, Yeasts” value (Yeasts; 7 days after inoculation (2.5 × 10^4)) was 6.0 × 10^2 CFU/g, the “Number … per g of contaminated sample, Yeasts” value (Yeasts; 14 days after inoculation (2.5 × 10^4)) was under 10 CFU/g and the “Number of surviving microorganisms per g of contaminated sample, Acetic acid bacteria” value (Acetic acid bacteria; 1 day after inoculation (2.3 × 10^4)) was 1.7 × 10^4 CFU/g. For the same compound, the “Number of surviving microorganisms per g of contaminated sample, Acetic acid bacteria” value (Acetic acid bacteria; 3 days after inoculation (2.3 × 10^4)) was 4.3 × 10^5 CFU/g, the “Number of surviving microorganisms per g of contaminated sample, Acetic acid bacteria” value (Acetic acid bacteria; 7 days after inoculation (2.3 × 10^4)) was 1.3 × 10^3 CFU/g and the “Number of surviving microorganisms per g of contaminated sample, Acetic acid bacteria” value (Acetic acid bacteria; 14 days after inoculation (2.3 × 10^4)) was 2.7 × 10^5 CFU/g. For the same compound, the “Number of surviving microorganisms per g of contaminated sample, Gram-positive bacteria” value (Gram-positive bacteria; 1 day after inoculation (2.6 × 10^4)) was 5.5 × 10^4 CFU/g, the “Number of surviving microorganisms per g of contaminated sample, Gram-positive bacteria” value (Gram-positive bacteria; 3 days after inoculation (2.6 × 10^4)) was 7.0 × 10^3 CFU/g and the “Number of surviving microorganisms per g of contaminated sample, Gram-positive bacteria” value (Gram-positive bacteria; 7 days after inoculation (2.6 × 10^4)) was under 100 CFU/g. The “Number of surviving microorganisms per g of contaminated sample, Gram-positive bacteria” value (Gram-positive bacteria; 14 days after inoculation (2.6 × 10^4)) was under 10 CFU/g, the “Number of surviving microorganisms per g of contaminated sample, Gram-negative bacteria” value (Gram-negative bacteria; 1 day after inoculation (2.4 × 10^4)) was 2.9 × 10^4 CFU/g and the “Number of surviving microorganisms per g of contaminated sample, Gram-negative bacteria” value (Gram-negative bacteria; 3 days after inoculation (2.4 × 10^4)) was 1.5 × 10^3 CFU/g. For the same compound, the “Number of surviving microorganisms per g of contaminated sample, Gram-negative bacteria” value (Gram-negative bacteria; 7 days after inoculation (2.4 × 10^4)) was 350 CFU/g, the “Number of surviving microorganisms per g of contaminated sample, Gram-negative bacteria” value (Gram-negative bacteria; 14 days after inoculation (2.4 × 10^4)) was under 10 CFU/g and the “Number of surviving microorganisms per g of contaminated sample, Lactic acid bacteria” value (Lactic acid bacteria; 1 day after inoculation (1.9 × 10^4)) was 1.3 × 10^4 CFU/g. For the same compound, the “Number of surviving microorganisms per g of contaminated sample, Lactic acid bacteria” value (Lactic acid bacteria; 3 days after inoculation (1.9 × 10^4)) was 1.2 × 10^6 CFU/g, the “Number of surviving microorganisms per g of contaminated sample, Lactic acid bacteria” value (Lactic acid bacteria; 7 days after inoculation (1.9 × 10^4)) was 1.7 × 10^6 CFU/g and the “Number of surviving microorganisms per g of contaminated sample, Lactic acid bacteria” value (Lactic acid bacteria; 14 days after inoculation (1.9 × 10^4)) was 1.2 × 10^7 CFU/g. For the same compound, the “Number of surviving microorganisms per g of contaminated sample, Thermophilic bacilli” value (Thermophilic bacilli; 1 day after inoculation (1.3 × 10^4)) was 1.6 × 10^3 CFU/g, the “Number of surviving microorganisms per g of contaminated sample, Thermophilic bacilli” value (Thermophilic bacilli; 3 days after inoculation (1.3 × 10^4)) was 900 CFU/g and the “Number of surviving microorganisms per g of contaminated sample, Thermophilic bacilli” value (Thermophilic bacilli; 7 days after inoculation (1.3 × 10^4)) was under 100 CFU/g. For the same compound, the “Number of surviving microorganisms per g of contaminated sample, Thermophilic bacilli” value (Thermophilic bacilli; 14 days after inoculation (1.3 × 10^4)) was under 10 CFU/g, the “Number of surviving microorganisms per g of contaminated sample, Bacilli” value (from here on “Number … per g of contaminated sample, Bacilli”) (Bacilli; 1 day after inoculation (1.5 × 10^4)) was 1.4 × 10^3 CFU/g and the “Number … per g of contaminated sample, Bacilli” value (Bacilli; 3 days after inoculation (1.5 × 10^4)) was “(<100) CFU/g”. For the same compound, the “Number … per g of contaminated sample, Bacilli” value (Bacilli; 7 days after inoculation (1.5 × 10^4)) was 1.4 × 10^3 CFU/g, the “Number … per g of contaminated sample, Bacilli” value (Bacilli; 14 days after inoculation (1.5 × 10^4)) was 1.3 × 10^3 CFU/g and the “Number of surviving microorganisms per g of contaminated sample, Clostridia” value (Clostridia; 1 day after inoculation (1.4 × 10^4)) was 1.1 × 10^3 CFU/g. For the same compound, the “Number of surviving microorganisms per g of contaminated sample, Clostridia” value (Clostridia; 3 days after inoculation (1.4 × 10^4)) was 450 CFU/g, the “Number of surviving microorganisms per g of contaminated sample, Clostridia” value (Clostridia; 7 days after inoculation (1.4 × 10^4)) was 160 CFU/g and the “Number of surviving microorganisms per g of contaminated sample, Clostridia” value (Clostridia; 14 days after inoculation (1.4 × 10^4)) was 250 CFU/g.
